Reference: the kinase profiling compilation of Christmann-Franck et al. (2016)

Key:
Settings in all cases: compound 10.0 µM
EPHA2 (human) = EPHA2 (human) (UniProt P29317)
MET (human) = MET (human) (UniProt P08581)
STK10 (human) = STK10 (human) (UniProt O94804)
BRSK1 (human) = BRSK1 (human) (UniProt Q8TDC3)
FGFR1 (human) = FGFR1 (human) (UniProt P11362)
LYN (human) = LYN (human) (UniProt P07948)
PRKCQ (human) = PRKCQ (human) (UniProt Q04759)
SRPK2 (human) = SRPK2 (human) (UniProt P78362)
CDK5 CDK5R1 p25 (human) = CDK5 CDK5R1 p25 (human) (UniProt Q15078+Q00535)
PAK1 (human) = PAK1 (human) (UniProt Q13153)
CDK4 CCND1 (human) = CDK4 CCND1 (human) (UniProt P11802+P24385)
TYRO3 (human) = TYRO3 (human) (UniProt Q06418)
MAPK12 (human) = MAPK12 (human) (UniProt P53778)
Chain of MAPK12 (human) (P53778 whole entry, looked up): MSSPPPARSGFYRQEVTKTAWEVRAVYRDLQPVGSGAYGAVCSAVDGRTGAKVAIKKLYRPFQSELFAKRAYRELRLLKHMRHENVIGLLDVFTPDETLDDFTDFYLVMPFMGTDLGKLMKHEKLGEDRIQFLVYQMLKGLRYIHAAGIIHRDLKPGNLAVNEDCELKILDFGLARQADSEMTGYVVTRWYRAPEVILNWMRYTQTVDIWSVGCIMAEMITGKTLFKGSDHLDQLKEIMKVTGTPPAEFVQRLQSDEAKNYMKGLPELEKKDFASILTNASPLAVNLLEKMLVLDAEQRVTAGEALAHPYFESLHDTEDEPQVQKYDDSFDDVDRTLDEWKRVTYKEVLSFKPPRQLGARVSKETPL

CSNK1G2 (human) = CSNK1G2 (human) (UniProt P78368)
STK25 (human) = STK25 (human) (UniProt O00506)
TSSK2 (human) = TSSK2 (human) (UniProt Q96PF2)
MAP3K2 (human) = MAP3K2 (human) (UniProt Q9Y2U5)
Chain of MAP3K2 (human) (Q9Y2U5 whole entry, looked up): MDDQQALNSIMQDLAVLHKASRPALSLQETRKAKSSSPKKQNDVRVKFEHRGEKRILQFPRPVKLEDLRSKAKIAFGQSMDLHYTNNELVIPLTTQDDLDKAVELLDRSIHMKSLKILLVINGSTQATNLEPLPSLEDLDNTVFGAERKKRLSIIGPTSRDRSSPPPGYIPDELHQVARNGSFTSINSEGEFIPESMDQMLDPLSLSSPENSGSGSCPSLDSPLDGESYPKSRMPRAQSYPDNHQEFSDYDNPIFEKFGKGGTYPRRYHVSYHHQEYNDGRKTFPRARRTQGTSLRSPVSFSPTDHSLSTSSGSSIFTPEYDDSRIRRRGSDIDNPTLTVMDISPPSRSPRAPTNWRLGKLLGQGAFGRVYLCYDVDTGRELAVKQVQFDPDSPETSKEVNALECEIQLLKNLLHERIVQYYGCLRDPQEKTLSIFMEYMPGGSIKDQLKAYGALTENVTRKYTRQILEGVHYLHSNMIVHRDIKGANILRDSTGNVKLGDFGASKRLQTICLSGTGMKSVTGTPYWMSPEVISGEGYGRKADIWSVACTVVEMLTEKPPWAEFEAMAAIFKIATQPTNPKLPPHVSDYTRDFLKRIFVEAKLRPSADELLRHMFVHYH

FGFR4 (human) = FGFR4 (human) (UniProt P22455)
IRAK1 (human) = IRAK1 (human) (UniProt P51617)
RPS6KB1 (human) = RPS6KB1 (human) (UniProt P23443)
MARK2 (human) = MARK2 (human) (UniProt Q7KZI7)
MAPK8 (human) = MAPK8 (human) (UniProt P45983)
LRRK2 (human) = LRRK2 (human) (UniProt Q5S007)
SGK2 (human) = SGK2 (human) (UniProt Q9HBY8)
IRAK4 (human) = IRAK4 (human) (UniProt Q9NWZ3)
AURKC (human) = AURKC (human) (UniProt Q9UQB9)
PAK6 (human) = PAK6 (human) (UniProt Q9NQU5)
RPS6KA4 KD1 KD2 (human) = RPS6KA4 KD1 KD2 (human) (UniProt O75676)
PRKD3 (human) = PRKD3 (human) (UniProt O94806)
ERBB4 (human) = ERBB4 (human) (UniProt Q15303)
RPS6KA1 KD1 KD2 (human) = RPS6KA1 KD1 KD2 (human) (UniProt Q15418)
MKNK1 (human) = MKNK1 (human) (UniProt Q9BUB5)
CSNK1G1 (human) = CSNK1G1 (human) (UniProt Q9HCP0)
Chain of CSNK1G1 (human) (Q9HCP0 whole entry, looked up): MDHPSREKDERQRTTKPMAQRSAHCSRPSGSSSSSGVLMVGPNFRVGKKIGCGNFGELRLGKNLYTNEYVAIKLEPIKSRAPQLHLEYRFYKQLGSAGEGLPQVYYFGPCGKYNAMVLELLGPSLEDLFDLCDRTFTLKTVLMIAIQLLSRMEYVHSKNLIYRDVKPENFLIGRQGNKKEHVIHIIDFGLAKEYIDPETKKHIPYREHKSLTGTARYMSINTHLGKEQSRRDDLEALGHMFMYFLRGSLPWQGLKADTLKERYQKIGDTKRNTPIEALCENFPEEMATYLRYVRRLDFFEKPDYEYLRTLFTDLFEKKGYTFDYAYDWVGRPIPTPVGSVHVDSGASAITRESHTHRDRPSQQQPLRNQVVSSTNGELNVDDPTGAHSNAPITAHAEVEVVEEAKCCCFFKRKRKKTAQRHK

IKBKB (human) = IKBKB (human) (UniProt O14920)
Chain of IKBKB (human) (O14920 whole entry, looked up): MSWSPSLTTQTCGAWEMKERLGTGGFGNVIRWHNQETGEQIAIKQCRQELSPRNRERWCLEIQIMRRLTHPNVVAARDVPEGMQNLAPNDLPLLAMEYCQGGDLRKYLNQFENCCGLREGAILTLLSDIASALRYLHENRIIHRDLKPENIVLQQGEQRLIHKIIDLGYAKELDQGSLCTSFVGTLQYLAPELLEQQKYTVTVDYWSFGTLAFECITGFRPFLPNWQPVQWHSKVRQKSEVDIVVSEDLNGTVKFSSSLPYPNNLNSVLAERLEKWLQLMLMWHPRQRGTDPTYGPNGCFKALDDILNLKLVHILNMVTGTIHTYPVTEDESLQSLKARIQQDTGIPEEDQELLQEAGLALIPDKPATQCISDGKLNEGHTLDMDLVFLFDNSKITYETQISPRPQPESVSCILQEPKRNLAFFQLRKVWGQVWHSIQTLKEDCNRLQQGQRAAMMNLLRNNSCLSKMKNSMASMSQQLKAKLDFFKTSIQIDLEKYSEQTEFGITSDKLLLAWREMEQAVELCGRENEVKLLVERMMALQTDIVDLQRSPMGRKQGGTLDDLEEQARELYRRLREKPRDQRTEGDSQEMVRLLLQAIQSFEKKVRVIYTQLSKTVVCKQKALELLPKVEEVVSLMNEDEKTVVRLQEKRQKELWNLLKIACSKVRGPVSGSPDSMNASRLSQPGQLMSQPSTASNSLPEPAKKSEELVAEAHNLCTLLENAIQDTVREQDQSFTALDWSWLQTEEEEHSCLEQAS

EPHA3 (human) = EPHA3 (human) (UniProt P29320)
HIPK3 (human) = HIPK3 (human) (UniProt Q9H422)
NUAK2 (human) = NUAK2 (human) (UniProt Q9H093)
EPHB4 (human) = EPHB4 (human) (UniProt P54760)
ROCK2 (human) = ROCK2 (human) (UniProt O75116)
CSK (human) = CSK (human) (UniProt P41240)
ALK (human) = ALK (human) (UniProt Q9UM73)
Chain of ALK (human) (Q9UM73 whole entry, looked up): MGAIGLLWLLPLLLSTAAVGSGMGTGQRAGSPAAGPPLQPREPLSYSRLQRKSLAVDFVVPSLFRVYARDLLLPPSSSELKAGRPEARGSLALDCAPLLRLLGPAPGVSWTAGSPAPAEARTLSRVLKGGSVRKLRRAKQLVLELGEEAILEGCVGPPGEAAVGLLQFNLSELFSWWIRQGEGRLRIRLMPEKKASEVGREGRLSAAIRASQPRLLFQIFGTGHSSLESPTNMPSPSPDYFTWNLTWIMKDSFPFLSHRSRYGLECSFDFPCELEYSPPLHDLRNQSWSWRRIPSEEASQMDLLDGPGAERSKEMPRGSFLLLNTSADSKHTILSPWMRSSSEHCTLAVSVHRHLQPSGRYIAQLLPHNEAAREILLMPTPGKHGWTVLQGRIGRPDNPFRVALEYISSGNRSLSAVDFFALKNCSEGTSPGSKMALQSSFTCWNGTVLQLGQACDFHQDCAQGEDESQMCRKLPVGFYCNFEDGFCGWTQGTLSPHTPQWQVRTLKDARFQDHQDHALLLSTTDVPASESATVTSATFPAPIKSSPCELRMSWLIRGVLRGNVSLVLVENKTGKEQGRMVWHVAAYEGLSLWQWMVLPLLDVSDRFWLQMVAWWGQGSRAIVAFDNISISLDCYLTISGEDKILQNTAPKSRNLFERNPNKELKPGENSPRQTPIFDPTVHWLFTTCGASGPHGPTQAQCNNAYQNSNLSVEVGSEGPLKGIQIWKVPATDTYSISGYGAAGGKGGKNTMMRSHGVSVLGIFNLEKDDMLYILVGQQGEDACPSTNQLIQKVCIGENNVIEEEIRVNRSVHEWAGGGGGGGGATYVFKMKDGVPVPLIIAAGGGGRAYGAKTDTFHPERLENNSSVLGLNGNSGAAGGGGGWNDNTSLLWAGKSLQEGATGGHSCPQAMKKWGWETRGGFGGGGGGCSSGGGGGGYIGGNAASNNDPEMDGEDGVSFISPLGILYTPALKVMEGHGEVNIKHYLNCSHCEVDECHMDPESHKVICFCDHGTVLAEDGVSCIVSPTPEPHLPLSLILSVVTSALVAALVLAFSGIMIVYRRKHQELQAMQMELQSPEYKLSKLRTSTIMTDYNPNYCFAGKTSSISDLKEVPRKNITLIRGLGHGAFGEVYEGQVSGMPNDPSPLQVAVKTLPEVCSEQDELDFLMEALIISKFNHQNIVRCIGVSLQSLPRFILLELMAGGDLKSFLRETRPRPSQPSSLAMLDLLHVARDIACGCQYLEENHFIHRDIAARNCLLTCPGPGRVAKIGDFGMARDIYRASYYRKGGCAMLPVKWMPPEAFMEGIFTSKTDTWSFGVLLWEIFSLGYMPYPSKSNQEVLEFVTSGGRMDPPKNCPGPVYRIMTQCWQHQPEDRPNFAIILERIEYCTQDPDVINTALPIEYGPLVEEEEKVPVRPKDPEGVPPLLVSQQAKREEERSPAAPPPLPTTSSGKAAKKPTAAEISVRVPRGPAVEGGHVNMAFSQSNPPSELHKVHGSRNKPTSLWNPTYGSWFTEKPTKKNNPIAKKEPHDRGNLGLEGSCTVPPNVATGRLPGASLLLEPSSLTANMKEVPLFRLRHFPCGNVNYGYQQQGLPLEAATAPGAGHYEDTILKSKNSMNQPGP

CAMKK2 (human) = CAMKK2 (human) (UniProt Q96RR4)
Chain of CAMKK2 (human) (Q96RR4 whole entry, looked up): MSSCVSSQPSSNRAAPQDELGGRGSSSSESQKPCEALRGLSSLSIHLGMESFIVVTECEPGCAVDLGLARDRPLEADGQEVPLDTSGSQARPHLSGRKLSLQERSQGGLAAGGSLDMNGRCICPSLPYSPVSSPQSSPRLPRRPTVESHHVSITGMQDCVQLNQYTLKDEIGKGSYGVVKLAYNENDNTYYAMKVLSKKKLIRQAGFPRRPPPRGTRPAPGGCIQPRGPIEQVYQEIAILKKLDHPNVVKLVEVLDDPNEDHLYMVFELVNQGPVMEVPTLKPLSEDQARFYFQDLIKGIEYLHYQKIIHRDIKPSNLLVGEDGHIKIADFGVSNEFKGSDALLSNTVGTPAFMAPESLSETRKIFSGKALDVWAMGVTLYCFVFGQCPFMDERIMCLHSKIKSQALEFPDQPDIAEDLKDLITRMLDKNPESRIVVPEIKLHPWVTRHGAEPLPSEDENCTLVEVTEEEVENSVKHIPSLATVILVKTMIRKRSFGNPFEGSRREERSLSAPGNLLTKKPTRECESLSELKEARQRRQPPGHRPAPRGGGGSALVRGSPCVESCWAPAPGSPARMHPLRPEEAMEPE

PRKCH (human) = PRKCH (human) (UniProt P24723)
SGK3 (human) = SGK3 (human) (UniProt Q96BR1)

Chain of PRKCQ (human) (Q04759 whole entry, looked up): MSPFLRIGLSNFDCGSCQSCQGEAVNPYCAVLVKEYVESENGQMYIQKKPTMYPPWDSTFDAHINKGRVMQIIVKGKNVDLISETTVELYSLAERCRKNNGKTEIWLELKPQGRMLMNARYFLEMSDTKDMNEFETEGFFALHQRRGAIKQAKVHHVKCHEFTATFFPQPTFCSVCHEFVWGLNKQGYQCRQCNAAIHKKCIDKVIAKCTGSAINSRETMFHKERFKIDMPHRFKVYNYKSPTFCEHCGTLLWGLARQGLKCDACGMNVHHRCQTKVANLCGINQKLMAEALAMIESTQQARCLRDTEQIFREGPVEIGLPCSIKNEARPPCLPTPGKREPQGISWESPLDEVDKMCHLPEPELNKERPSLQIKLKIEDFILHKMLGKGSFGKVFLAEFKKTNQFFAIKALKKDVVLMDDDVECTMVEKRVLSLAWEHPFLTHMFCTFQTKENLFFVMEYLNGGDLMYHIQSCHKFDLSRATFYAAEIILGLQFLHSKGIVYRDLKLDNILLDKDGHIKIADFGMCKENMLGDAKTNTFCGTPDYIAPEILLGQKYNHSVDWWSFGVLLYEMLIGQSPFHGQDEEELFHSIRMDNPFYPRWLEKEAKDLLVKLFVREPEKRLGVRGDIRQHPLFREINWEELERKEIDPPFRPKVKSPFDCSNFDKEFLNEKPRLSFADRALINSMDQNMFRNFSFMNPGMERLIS

residual activity (EPHA2 (human)): 106%
residual activity (MET (human)): 128%
residual activity (STK10 (human)): 90%
residual activity (BRSK1 (human)): 99.5%
residual activity (FGFR1 (human)): 84.5%
residual activity (LYN (human)): 104%
residual activity (PRKCQ (human)): 99.5%
residual activity (SRPK2 (human)): 98.5%
residual activity (CDK5 CDK5R1 p25 (human)): 97.5%
residual activity (PAK1 (human)): 106%
residual activity (CDK4 CCND1 (human)): 94.5%
residual activity (TYRO3 (human)): 94.5%
residual activity (MAPK12 (human)): 97.5%
residual activity (CSNK1G2 (human)): 90.5%
residual activity (STK25 (human)): 93%
residual activity (TSSK2 (human)): 93.5%
residual activity (MAP3K2 (human)): 100%
residual activity (FGFR4 (human)): 89%
residual activity (IRAK1 (human)): 97%
residual activity (RPS6KB1 (human)): 97%
residual activity (MARK2 (human)): 92.5%
residual activity (MAPK8 (human)): 99.5%
residual activity (LRRK2 (human)): 99%
residual activity (SGK2 (human)): 105%
residual activity (IRAK4 (human)): 107%
residual activity (AURKC (human)): 101%
residual activity (PAK6 (human)): 102%
residual activity (RPS6KA4 KD1 KD2 (human)): 90.5%
residual activity (PRKD3 (human)): 102%
residual activity (ERBB4 (human)): 93.5%
residual activity (RPS6KA1 KD1 KD2 (human)): 76%
residual activity (MKNK1 (human)): 97%
residual activity (CSNK1G1 (human)): 110%
residual activity (IKBKB (human)): 102%
residual activity (EPHA3 (human)): 98%
residual activity (HIPK3 (human)): 100%
residual activity (NUAK2 (human)): 103%
residual activity (EPHB4 (human)): 95%
residual activity (ROCK2 (human)): 98.5%
residual activity (CSK (human)): 89.5%
residual activity (ALK (human)): 91.5%
residual activity (CAMKK2 (human)): 98%
residual activity (PRKCH (human)): 103%
residual activity (SGK3 (human)): 105%
Structure (SMILES): CC[C@H](C)n1cc(C)c2c(C(=O)NCc3c(C)cc(C)[nH]c3=O)cc(-c3ccc(N4CCNCC4)nc3)cc21
